Test results taken from patent US4868181A, “1,4-dihydropyridine derivatives with calcium agonist and alpha1 -antagonist activity” (E. I. Du Pont de Nemours and Company, priority 1987, dated 1989).

What was measured:
[1] = system: calcium ions influx; details: cited from earlier work
[2] = system: guinea pig left atria; experiment: Positive inotropic effect in guinea pig left atria; details: 37°; for EC50: left atria paced at 2Hz, cumulative addition to maximum 10^-4, read-out: EC50 (concentration that increases DT by 50% above the control DT); for Intrinsic Activity (ratio of the maximum effect of the test compound to that of Bay K 8644): relative to Bay K 8644, left atria paced at 2Hz
Method: Guinea pigs are killed by cervical dislocation. The left atria are removed and mounted at 1 gm resting tension in tissue baths containing oxygenated Krebs bicarbonate solution which is kept at 37°. The left atria are electrically paced at 2Hz with square wave pulses of 1 msec duration. The voltage is set at 1.5× threshold level.
After a one hour equilibration period, control values for developed tension (DT, gm) are recorded. Test compounds are then added to the baths, in a cumulative manner to a maximum concentration of 10^-4, to obtain a concentration-response curve. Treatment values of DT are obtained after the rug effect has reached a plateau and the exposure time for each concentration is 5-8 minutes. Percent change of the treatment value from the control value is calculated at each concentration of the test compound.

[3] = system: coronary vasoconstriction; details: cited from earlier work
[4] = biological target: alpha1 -adrenoceptors; experiment: [^3 H]-prazosin binding assay (affinity for alpha1-adrenoceptors); details: rat brain membranes, 0.2 nM [^3 H]-prazosin, 60 minutes at 25°
Method: The [^3 H]-prazosin binding assay was carried out according to the method described by Timmermans, P. B. M. W. M., Schoop, A. M. C., and Van Zwieten, P. A.: Biochem Pharmacol., 31, 899-905, 1982 (1). The reaction mixture contained partially purified rat brain membranes (source of alpha1 -adrenoceptors), 0.2 nM [^3 H]-prazosin with or without potential displacer in Tris buffer. The mixture was incubated for 60 minutes at 25° and subsequently terminated by rapid filtration through glass fiber-filter. Receptor-bound [^3 H]-prazosin trapped in the filter was quantitated by scintillation counting. The inhibitory concentration (IC50) of potential displacer which gives 50% displacement of the total specifically bound [^3 H]-prazosin is presented as a measure of the affinity of such compound for the alpha1 -adrenoceptor.

[5] = biological target: T1, Ca^2 + channels (Rattus norvegicus, UniProt P22002); experiment: [^3 H]-Nitrendipine binding assay (affinity for calcium channels); details: rat cardiac microsomes, 0.5 nM [^3 H]-nitrendipine, 60 minutes at 25°
T1 construct: rat cardiac microsomes (source of Ca^2 + channels); from tissue; host or cells: rat cardiac microsomes
T1 sequence (P22002 whole entry, other chains not shown): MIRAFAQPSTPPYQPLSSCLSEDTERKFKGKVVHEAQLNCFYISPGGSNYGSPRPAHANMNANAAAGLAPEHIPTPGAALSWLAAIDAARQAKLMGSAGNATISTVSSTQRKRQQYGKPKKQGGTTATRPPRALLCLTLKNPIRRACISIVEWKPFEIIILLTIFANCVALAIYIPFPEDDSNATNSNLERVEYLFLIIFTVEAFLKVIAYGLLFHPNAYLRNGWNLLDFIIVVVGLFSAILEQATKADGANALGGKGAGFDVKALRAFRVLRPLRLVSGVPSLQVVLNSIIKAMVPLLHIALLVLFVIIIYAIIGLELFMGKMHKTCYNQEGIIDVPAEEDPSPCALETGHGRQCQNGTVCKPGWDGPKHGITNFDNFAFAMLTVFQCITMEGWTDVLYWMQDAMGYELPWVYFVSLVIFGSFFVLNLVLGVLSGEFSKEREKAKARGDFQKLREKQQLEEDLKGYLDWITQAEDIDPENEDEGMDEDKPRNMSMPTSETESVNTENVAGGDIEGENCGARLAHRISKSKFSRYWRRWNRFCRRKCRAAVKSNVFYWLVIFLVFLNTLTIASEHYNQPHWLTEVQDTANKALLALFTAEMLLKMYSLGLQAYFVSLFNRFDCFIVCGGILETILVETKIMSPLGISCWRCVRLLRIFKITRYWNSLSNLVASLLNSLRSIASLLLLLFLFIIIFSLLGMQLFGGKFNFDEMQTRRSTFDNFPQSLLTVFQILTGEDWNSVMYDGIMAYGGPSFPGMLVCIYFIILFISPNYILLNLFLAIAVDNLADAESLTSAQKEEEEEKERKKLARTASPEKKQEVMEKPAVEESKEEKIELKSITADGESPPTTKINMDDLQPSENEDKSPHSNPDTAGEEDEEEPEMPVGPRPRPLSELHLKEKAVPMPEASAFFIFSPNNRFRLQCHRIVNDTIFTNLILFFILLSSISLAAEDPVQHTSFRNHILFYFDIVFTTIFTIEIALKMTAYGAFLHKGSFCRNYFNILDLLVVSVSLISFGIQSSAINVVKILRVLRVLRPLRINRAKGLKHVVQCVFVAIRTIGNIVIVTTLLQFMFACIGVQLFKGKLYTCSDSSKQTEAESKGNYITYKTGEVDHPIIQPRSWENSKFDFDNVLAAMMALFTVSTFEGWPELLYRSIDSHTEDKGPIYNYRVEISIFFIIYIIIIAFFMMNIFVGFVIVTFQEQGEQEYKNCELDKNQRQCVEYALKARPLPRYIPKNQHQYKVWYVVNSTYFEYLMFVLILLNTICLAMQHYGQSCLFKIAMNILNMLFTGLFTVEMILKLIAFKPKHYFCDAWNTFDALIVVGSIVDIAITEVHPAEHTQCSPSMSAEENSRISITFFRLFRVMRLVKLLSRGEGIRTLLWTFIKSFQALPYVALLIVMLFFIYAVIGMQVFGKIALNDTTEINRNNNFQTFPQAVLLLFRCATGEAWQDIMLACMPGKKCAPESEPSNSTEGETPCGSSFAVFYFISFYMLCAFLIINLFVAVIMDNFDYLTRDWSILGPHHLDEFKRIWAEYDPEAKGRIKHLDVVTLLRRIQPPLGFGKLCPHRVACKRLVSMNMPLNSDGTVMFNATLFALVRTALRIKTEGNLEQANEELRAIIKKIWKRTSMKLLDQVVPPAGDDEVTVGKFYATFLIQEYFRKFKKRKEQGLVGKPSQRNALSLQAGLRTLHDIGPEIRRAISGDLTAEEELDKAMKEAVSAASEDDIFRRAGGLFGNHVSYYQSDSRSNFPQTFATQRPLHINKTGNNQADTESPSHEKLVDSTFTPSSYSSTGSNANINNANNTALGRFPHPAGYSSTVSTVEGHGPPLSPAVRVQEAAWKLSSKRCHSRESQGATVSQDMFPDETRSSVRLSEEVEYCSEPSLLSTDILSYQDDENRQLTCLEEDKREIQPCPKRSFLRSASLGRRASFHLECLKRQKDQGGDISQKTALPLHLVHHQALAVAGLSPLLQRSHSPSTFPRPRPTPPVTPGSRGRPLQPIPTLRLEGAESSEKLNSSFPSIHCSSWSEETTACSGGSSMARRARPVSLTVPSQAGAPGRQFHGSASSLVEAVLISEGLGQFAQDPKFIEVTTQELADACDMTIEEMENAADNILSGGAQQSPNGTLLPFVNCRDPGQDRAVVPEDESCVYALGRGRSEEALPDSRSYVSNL
T1 sequence (P54290 25-944 partner limits assumed, other chains not shown): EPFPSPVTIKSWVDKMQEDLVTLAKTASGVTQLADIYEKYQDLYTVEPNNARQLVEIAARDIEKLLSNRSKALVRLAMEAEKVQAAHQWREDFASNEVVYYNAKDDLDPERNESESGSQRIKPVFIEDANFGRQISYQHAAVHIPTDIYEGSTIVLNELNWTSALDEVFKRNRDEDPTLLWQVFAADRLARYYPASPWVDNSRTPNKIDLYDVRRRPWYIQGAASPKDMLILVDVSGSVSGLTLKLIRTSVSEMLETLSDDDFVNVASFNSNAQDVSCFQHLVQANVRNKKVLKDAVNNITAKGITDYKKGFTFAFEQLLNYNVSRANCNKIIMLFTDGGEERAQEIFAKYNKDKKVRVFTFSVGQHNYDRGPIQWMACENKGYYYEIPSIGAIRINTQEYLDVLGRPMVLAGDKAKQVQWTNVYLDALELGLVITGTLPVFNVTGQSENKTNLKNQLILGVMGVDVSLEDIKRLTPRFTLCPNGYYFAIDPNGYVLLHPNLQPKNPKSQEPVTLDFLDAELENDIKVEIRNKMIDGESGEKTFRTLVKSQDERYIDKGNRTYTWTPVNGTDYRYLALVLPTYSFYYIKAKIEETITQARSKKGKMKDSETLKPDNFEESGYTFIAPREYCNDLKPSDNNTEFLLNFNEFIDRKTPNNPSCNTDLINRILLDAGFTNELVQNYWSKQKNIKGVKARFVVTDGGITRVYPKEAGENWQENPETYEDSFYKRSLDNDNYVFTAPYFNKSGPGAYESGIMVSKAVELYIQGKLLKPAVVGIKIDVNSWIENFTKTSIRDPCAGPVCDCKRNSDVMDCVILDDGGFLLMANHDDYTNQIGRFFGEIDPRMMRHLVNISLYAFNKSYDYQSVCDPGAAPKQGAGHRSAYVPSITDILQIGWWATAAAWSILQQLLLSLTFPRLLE
T1 sequence (P54290 945-1091 partner limits assumed, other chains not shown): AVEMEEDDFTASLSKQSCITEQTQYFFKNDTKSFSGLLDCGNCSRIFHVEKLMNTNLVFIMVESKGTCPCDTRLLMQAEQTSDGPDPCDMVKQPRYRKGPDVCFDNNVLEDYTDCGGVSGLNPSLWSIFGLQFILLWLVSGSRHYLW
Method: [^3 H]-Nitrendipine binding assay was carried out according to the method described by G. T. Bolger, et al., Biochem. Biophys. Res. Comm., 104, 1604-1609, 1982 (1). The reaction mixture contained rat cardiac microsomes (source of Ca^2 + channels), 0.5 nM [^3 H]-nitrendipinewith or without potential displacer in Tris buffer. The mixture was incubated for 60 minutes at 25° and subsequently terminated by rapid filtration through a glass fiber-filter. Membrane-bound [^3 H]-nitrendipine trapped in the filter was quantitated by scintillation counting. The inhibitory concentration (IC50) of potential displacer which gives 50% displacement of the total specifically bound [^3 H]-nitrendipine is presented as a measure of the affinity of such compound for the Ca^2 + channel.

| Structure (SMILES) | EC50 [2] | IC50 [4] | IC50 [5] | calcium ion influx and resulting effects [1] | Intrinsic Activity (ratio of the maximum effect of the test compound to that of Bay K 8644) [2] | potency as a calcium agonist relative to CGP28392 ([1]; compared with CGP28392) | toxicity [3] |
| --- | --- | --- | --- | --- | --- | --- | --- |
| CCOC(=O)C1=C(C)NC2=C(C(=O)OC2)C1c1ccccc1OC(F)F (stereo not drawn) [CGP28392] |  |  |  | promote an influx of calcium ions, therefore producing positive inotropic and vasoconstrictor effects |  |  |  |
| COC(=O)C1=C(C)NC(C)=C([N+](=O)[O-])C1c1ccccc1C(F)(F)F (stereo not drawn) [Bay K8644] | 150 nM |  |  | promote an influx of calcium ions, therefore producing positive inotropic and vasoconstrictor effects | 100% | more than 10 times | toxic because it causes coronary vasoconstriction |
| COC(=O)C1=C(C)NC(C)=C([N+](=O)[O-])C1c1cccc([N+](=O)[O-])c1OCCCN1CCN(c2ccccc2OC)CC1 (stereo not drawn) [Example 139] | > 100000 nM | 140 nM | 120 nM |  | 0% |  |  |
| COC(=O)C1=C(C)NC(C)=C([N+](=O)[O-])C1c1cccc([N+](=O)[O-])c1OCCCCCN1CCN(c2ccccc2OC)CC1 (stereo not drawn) [Example 140] | > 100000 nM | 180 nM | 160 nM |  | 0% |  |  |
| COC(=O)C1=C(C)NC(C)=C([N+](=O)[O-])C1c1ccccc1OCCCCN1CCN(c2ncccn2)CC1 (stereo not drawn) [Example 60, 1,4-dihydro-2,6-dimethyl-'nitro-4-[2-(4-(4-(2-pyrimidinyl)-piperazinyl)butoxy)phenyl]methylester-36pyridinecarboxylic acid] | 1000 nM | 4900 nM | 1000 nM |  | 50% |  |  |
| COC(=O)C1=C(C)NC(C)=C([N+](=O)[O-])C1c1ccccc1OCCCCN1CCN(c2ccccc2OC)CC1 (stereo not drawn) [Example 105] | 3000 nM | 180 nM | 220 nM |  | 20% |  |  |
| COc1cccc(OC)c1OCCNCCOC(=O)C1=C(C)NC(C)=C([N+](=O)[O-])C1c1ccccc1C(F)(F)F (stereo not drawn) [Example 13] | 30000 nM | > 10000 nM | 830 nM |  | 50% |  |  |

The next lines start with results.

| EC50 [2] | IC50 [4] | IC50 [5] | Structure (SMILES) | calcium ion influx and resulting effects [1] | Intrinsic Activity (ratio of the maximum effect of the test compound to that of Bay K 8644) [2] | potency as a calcium agonist relative to CGP28392 ([1]; compared with CGP28392) | toxicity [3] |
| --- | --- | --- | --- | --- | --- | --- | --- |
| > 100000 nM | 4500 nM | 1700 nM | COC(=O)C1=C(C)NC(C)=C([N+](=O)[O-])C1c1cccc(OCCCN2CCN(C(c3ccc(F)cc3)c3ccc(F)cc3)CC2)c1 (stereo not drawn) [Example 123] |  | 0% |  |  |
| > 100000 nM | 440 nM | 1400 nM | COC(=O)C1=C(C)NC(C)=C([N+](=O)[O-])C1c1cccc(OCC=CCN2CCN(c3ccccc3OC)CC2)c1 (stereo not drawn) [Example 125] |  | 0% |  |  |
| 30000 nM | 440 nM | 470 nM | CCOC(=O)C1=C(C)NC(C)=C([N+](=O)[O-])C1c1ccccc1OCCCCN1CCN(c2ccccc2OC)CC1 (stereo not drawn) [Example 120] |  | 50% |  |  |
| 3000 nM | 330 nM | 380 nM | COC(=O)C1=C(C)NC(C)=C([N+](=O)[O-])C1c1cccc(OCCCCCCN2CCN(c3ccccc3OC)CC2)c1 (stereo not drawn) [Example 130] |  | 25% |  |  |
| 2000 nM | 380 nM | 360 nM | COC(=O)C1=C(C)NC(C)=C([N+](=O)[O-])C1c1ccccc1OCCCCCCN1CCN(c2ccccc2OC)CC1 (stereo not drawn) [Example 129] |  | 15% |  |  |
| > 100000 nM | 180 nM | 1700 nM | CCOc1cccc(C2C(C(=O)OC)=C(C)NC(C)=C2[N+](=O)[O-])c1OCCCCCN1CCN(c2ccccc2OC)CC1 (stereo not drawn) [Example 112] |  | 0% |  |  |
| > 100000 nM | 280 nM | 10000 nM | CCOC(=O)C1=C(C)NC(C)=C([N+](=O)[O-])C1c1cccc(OCCCN2CCN(c3ccccc3OC)CC2)c1 (stereo not drawn) [Example 117] |  | 0% |  |  |
